Measurements: patent US12285407B2, “Bis-indolylmethane derivatives and uses thereof” (The University of The West Indies, priority 2018, dated 2025)

What was measured:
[1] = tested on: Staphylococcus aureus; assay: Checkerboard synergy (FICI) of antibiotics with SP-BIM; format: cell-based; settings: Staphylococcus aureus
[2] = tested on: Candida albicans; assay: as above; set-up: MIC SP-BIM 13 only / MIC in combination: Antibiotic / MIC antibiotic only: unit not given beside the values
[3] = tested on: Enterococcus faecalis; assay: Adjuvant broth microdilution (antibiotic MIC with SP-BIM at 50 μg/mL); format: cell-based; settings: antibiotic alone
[4] = tested on: Streptococcus pneumoniae; assay: as above; format: cell-based; settings: Streptococcus pneumoniae, read-out: MIC of antibiotic, No compound
[5] = tested on: Klebsiella pneumoniae; assay: Checkerboard synergy (FICI) of antibiotics with SP-BIM; format: cell-based
[6] = tested on: Escherichia coli; assay: microbe, parasite or virus in culture; format: cell-based; settings: read-out: MIC of antibiotic, No compound
[7] = tested on: Bacillus cereus; assay: Checkerboard synergy (FICI) of antibiotics with SP-BIM; format: cell-based
[8] = tested on: MRSA; assay: Adjuvant broth microdilution (antibiotic MIC with SP-BIM at 50 μg/mL); format: cell-based, Staphylococcus aureus
[9] = tested on: MRSA HS 10132; assay: Systemic lethal MRSA infection in mice (survival); format: in vivo; settings: vancomycin only
[10] = tested on: Pseudomonas aeruginosa; assay: Adjuvant broth microdilution (antibiotic MIC with SP-BIM at 50 μg/mL); format: cell-based; settings: antibiotic alone
[11] = tested on: Enterobacter cloacae; assay: as above; format: cell-based; settings: antibiotic alone
[12] = tested on: Escherichia coli; assay: Checkerboard synergy (FICI) of antibiotics with SP-BIM; set-up: MIC SP-BIM 13 only / MIC in combination: Antibiotic: unit not given beside the values
[13] = tested on: Enterococcus faecium; assay: as above; format: cell-based; settings: Enterococcus faecium
[14] = tested on: Streptococcus pneumoniae; assay: as above; format: cell-based
[15] = 24 h, read-out: MIC antibiotic only
[16] = SP-BIM 9 in combination with the labelled antibiotic
[17] = SP-BIM 13 in combination with the labelled antibiotic
[18] = antibiotic alone, SP-BIM 13 checkerboard
[19] = antibiotic in combination with SP-BIM 9
[20] = antibiotic in combination with SP-BIM 13
[21] = MIC of the antibiotic in combination with SP-BIM 13
[22] = Streptococcus pneumonia (title: Streptococcus pyogenes), antibiotic + SP-BIM 9
[23] = Streptococcus pneumoniae, antibiotic + SP-BIM 13

CN[C@H](CC(C)C)C(=O)N[C@H]1C(=O)N[C@@H](CC(N)=O)C(=O)N[C@H]2C(=O)N[C@H]3C(=O)N[C@H](C(=O)N[C@H](C(=O)O)c4cc(O)cc(O)c4-c4cc3ccc4O)[C@H](O)c3ccc(c(Cl)c3)Oc3cc2cc(c3O[C@@H]2O[C@H](CO)[C@@H](O)[C@H](O)[C@H]2O[C@H]2C[C@](C)(N)[C@H](O)[C@H](C)O2)Oc2ccc(cc2Cl)[C@H]1O [Vancomycin, vancomycin]
MIC [1, 15]: 2 µg/mL
FIC of SP-BIM 9 [1, 16]: 0.02
FIC of SP-BIM 13 [1, 17]: 0.3
Interpretation ([1]; antibiotic + SP-BIM 9): Synergy (Synergy: FICI≤0.5)
Σ FIC ([1]; antibiotic + SP-BIM 9): <0.27
Interpretation ([1]; antibiotic + SP-BIM 13): Synergy (Synergy: FICI≤0.5)
Σ FIC ([1]; antibiotic + SP-BIM 13): 0.4
MIC antibiotic only [1, 18]: 2 µg/mL
MIC in combination, Antibiotic [1, 19]: 0.5 µg/mL
MIC in combination, Antibiotic [1, 20]: 0.25 µg/mL
FIC of antibiotic ([1]; in combination with SP-BIM 9): 0.25
FIC of antibiotic ([1]; in combination with SP-BIM 13): 0.1
MIC [2, 15]: 16 µg/mL
MIC in combination: Antibiotic [2, 21]: 8
FIC of SP-BIM 13 [2, 17]: 0.1
Interpretation ([2]; antibiotic + SP-BIM 13): Additive (Additive: FICI>0.5-1.0)
Σ FIC ([2]; antibiotic + SP-BIM 13): <0.6
FIC of antibiotic ([2]; combination with SP-BIM 13): 0.5
MIC of antibiotic, No Compound [3]: 250 µg/mL
MIC [4]: 1 µg/mL
MIC [5, 15]: 125 µg/mL
FIC of SP-BIM 9 [5, 16]: 1
FIC of SP-BIM 13 [5, 17]: 1.0
Interpretation ([5]; antibiotic + SP-BIM 9): Indifferent (Indifferent: FICI>1.0-4.0)
Σ FIC ([5]; antibiotic + SP-BIM 9): <2.0
Interpretation ([5]; antibiotic + SP-BIM 13): Indifferent (Indifferent: FICI>1.0-4.0)
Σ FIC ([5]; antibiotic + SP-BIM 13): <2.0
MIC antibiotic only [5, 18]: 125 µg/mL
MIC in combination, Antibiotic [5, 19]: 125 µg/mL
MIC in combination, Antibiotic [5, 20]: 125 µg/mL
FIC of antibiotic ([5]; in combination with SP-BIM 9): 1
FIC of antibiotic ([5]; in combination with SP-BIM 13): 1.0
MIC [6]: 125 µg/mL
MIC [7, 15]: 2 µg/mL
FIC of SP-BIM 13 [7, 17]: 0.0
Interpretation ([7]; antibiotic + SP-BIM 13): Synergy (Synergy: FICI≤0.5)
Σ FIC ([7]; antibiotic + SP-BIM 13): 0.1
MIC antibiotic only [7, 18]: 2 µg/mL
MIC in combination, Antibiotic [7, 20]: 0.25 µg/mL
FIC of antibiotic ([7]; in combination with SP-BIM 13): 0.13
MIC ([8]; Staphylococcus aureus, read-out: MIC of antibiotic, No compound): 4 µg/mL
MIC of antibiotic, No Compound ([8]; antibiotic alone, Table 8 (series SP-BIMs 21-29)): 2 µg/mL
survival rate [9]: similarly high survival rate
MIC of antibiotic, No Compound [10]: >250 µg/mL
MIC of antibiotic, No Compound [11]: >250 µg/mL
MIC [12, 15]: 125 µg/mL
MIC in combination: Antibiotic [12, 21]: 125
FIC of SP-BIM 9 [12, 16]: 1
FIC of SP-BIM 13 [12, 17]: 1.0
Interpretation ([12]; antibiotic + SP-BIM 9): Indifferent (Indifferent: FICI>1.0-4.0)
Σ FIC ([12]; antibiotic + SP-BIM 9): <2.0
Interpretation ([12]; antibiotic + SP-BIM 13): Indifferent (Indifferent: FICI>1.0-4.0)
Σ FIC ([12]; antibiotic + SP-BIM 13): <2.0
MIC antibiotic only ([12]; antibiotic alone): 125
MIC in combination, Antibiotic [12, 19]: 125 µg/mL
FIC of antibiotic ([12]; combination with SP-BIM 13): 1.0
FIC of antibiotic ([12]; in combination with SP-BIM 9): 1
MIC [13, 15]: 16 µg/mL
MIC in combination, SP-BIM 9 ([13]; SP-BIM 9 concentration in combination with the labelled antibiotic): 64 µg/mL
FIC of SP-BIM 9 [13, 16]: 0.3
FIC of SP-BIM 13 [13, 17]: 0.5
Interpretation ([13]; antibiotic + SP-BIM 9): Synergy (Synergy: FICI≤0.5)
Σ FIC ([13]; antibiotic + SP-BIM 9): ≤0.31
Interpretation ([13]; antibiotic + SP-BIM 13): Additive (Additive: FICI>0.5-1.0)
Σ FIC ([13]; antibiotic + SP-BIM 13): <1.0
MIC antibiotic only [13, 18]: 16 µg/mL
MIC in combination, Antibiotic [13, 19]: 0.2 µg/mL
MIC in combination, Antibiotic [13, 20]: 8 µg/mL
FIC of antibiotic ([13]; in combination with SP-BIM 9): 0.013
FIC of antibiotic ([13]; in combination with SP-BIM 13): 0.5
FIC of SP-BIM 9 ([14]; Streptococcus pneumonia (title: Streptococcus pyogenes), SP-BIM 9 in combination with the labelled antibiotic): 0.26
Interpretation [14, 22]: Synergy (Synergy: FICI≤0.5)
Σ FIC [14, 22]: <0.36
MIC in combination, Antibiotic ([14]; Streptococcus pneumonia (title: Streptococcus pyogenes), antibiotic in combination with SP-BIM 9): 0.2 µg/mL
FIC of antibiotic ([14]; Streptococcus pneumonia (title: Streptococcus pyogenes), in combination with SP-BIM 9): 0.10
MIC ([14]; Streptococcus pneumoniae, 24 h, read-out: MIC antibiotic only): 2 µg/mL
FIC of SP-BIM 13 ([14]; Streptococcus pneumoniae, SP-BIM 13 in combination with the labelled antibiotic): 0.1
Interpretation [14, 23]: Synergy (Synergy: FICI≤0.5)
Σ FIC [14, 23]: 0.3
MIC antibiotic only ([14]; Streptococcus pneumoniae, antibiotic alone, SP-BIM 13 checkerboard): 2 µg/mL
MIC in combination, Antibiotic ([14]; Streptococcus pneumoniae, antibiotic in combination with SP-BIM 13): 0.5 µg/mL
FIC of antibiotic ([14]; Streptococcus pneumoniae, in combination with SP-BIM 13): 0.3
